From patent publication US20240366629A1, “Porphyrin Complexes as Antidotes for Carbon Monoxide Exposure and Methods of Use for Same” (priority 2021, published 2024)

Tests used:
[1] = Solubility in water and methanol
CO-treated RBCs = experiment: Time-course CO removal from CO-treated RBCs (absorbance at 420 nm); assay type: cell-based, bovine; details: quiescent suspension of CO-poisoned RBCs in buffered dithionite solution, 1 equiv of 6 (reduced in situ to 7)
Method: Time-Course CO Removal From CO-Treated RBCs Defibrinated bovine blood (Hemostat Laboratories) was diluted with PBS containing 5.7 mM sodium dithionite. CO was bubbled through this suspension for 5 s. This mixture was centrifuged for 30 s at 760×g. The supernatant was discarded, and the pellet was washed with PBS containing 5.7 mM sodium dithionite. This washing was repeated three more times to remove excess CO. An aliquot of the stock suspension of CO-treated RBCs was added to a quartz cuvette containing 1 mL of DI water to lyse the cells. The concentration of COHb was assessed by measuring the absorbance at 420 nm (ε=10^5.63) of this lysate. For time-course CO removal, an aliquot of the stock suspension of CO-treated RBCs was diluted to 1 mL with PBS containing 5.7 mM sodium dithionite. A full equivalent of compound 6 (which is reduced in situ to 7) was added, the suspension was rapidly mixed, and absorbance at 420 nm was monitored continuously (FIG. 12).

| Molecule | solubility in water and methanol [1] | time to essentially complete reaction (decrease of COHb absorbance at 420 nm) (CO-treated RBCs) [min] |
| --- | --- | --- |
| O=S(=O)([O-])c1cc(-c2cc(F)cc(F)c2)c(-c2c3nc(c(-c4c(-c5cc(F)cc(F)c5)cc(S(=O)(=O)[O-])cc4-c4cc(F)cc(F)c4)c4ccc([nH]4)c(-c4c(-c5cc(F)cc(F)c5)cc(S(=O)(=O)[O-])cc4-c4cc(F)cc(F)c4)c4nc(c(-c5c(-c6cc(F)cc(F)c6)cc(S(=O)(=O)[O-])cc5-c5cc(F)cc(F)c5)c5ccc2[nH]5)C=C4)C=C3)c(-c2cc(F)cc(F)c2)c1.[Na+].[Na+].[Na+].[Na+] [Compound 2-3b, sodium 5,10,15,20-tetrakis(2,6-di(3,5-difluoro)phenyl-4-(sulfonato)phenyl)porphyrin] | readily dissolved | – |
| Sodium 5,10,15,20-tetrakis(2,6-diphenyl-4-(sulfonate)phenyl)porphyrinatohydroxoiron(III) [Compound 6] | – | ≤ 3 |
| 5,10,15,20-tetrakis(2,6-di(3,5-difluoro)phenyl-4-(trimethylsilyl) phenyl) porphyrin [Compound 2-2b] | completely insoluble | – |
| C[Si](C)(C)c1cc(-c2ccccc2)c(-c2c3nc(c(-c4c(-c5ccccc5)cc([Si](C)(C)C)cc4-c4ccccc4)c4ccc([nH]4)c(-c4c(-c5ccccc5)cc([Si](C)(C)C)cc4-c4ccccc4)c4nc(c(-c5c(-c6ccccc6)cc([Si](C)(C)C)cc5-c5ccccc5)c5ccc2[nH]5)C=C4)C=C3)c(-c2ccccc2)c1 [Compound 2-2a, 5,10,15,20-tetrakis(2,6-diphenyl-4-(trimethylsilyl)phenyl) porphyrin] | completely insoluble | – |
| O=S(=O)([O-])c1cc(-c2ccccc2)c(-c2c3nc(c(-c4c(-c5ccccc5)cc(S(=O)(=O)[O-])cc4-c4ccccc4)c4ccc([nH]4)c(-c4c(-c5ccccc5)cc(S(=O)(=O)[O-])cc4-c4ccccc4)c4nc(c(-c5c(-c6ccccc6)cc(S(=O)(=O)[O-])cc5-c5ccccc5)c5ccc2[nH]5)C=C4)C=C3)c(-c2ccccc2)c1.[Na+].[Na+].[Na+].[Na+] [Compound 2-3a, sodium 5,10,15,20-tetrakis(2,6-diphenyl-4-(sulfonato)phenyl)porphyrin] | readily dissolved | – |
